Data reported in PubChem BioAssay AID488890 (Southern Research Specialized Biocontainment Screening …, 2010).
Results filed as inconclusive are left out. The source made the active and inactive calls. The rule behind the calls is not given here.

System: Mycobacterium tuberculosis non-replicating, growth inhibition
Experiment: growth inhibition of non-replicating M. tuberculosis (AID 488890)

SMILES | IC50
COC(=O)C1=C(C)N(CC2CC2)C(=NCc2cccc(Cl)c2)N[C@H]1c1ccccc1 | 10.5 µM (inactive)
COC(=O)COc1cccc(/C=N/NC(=O)CCSc2ccccc2)c1 | 9.71 µM
CC(C)(C)CC(=O)NC(=S)NCc1ccco1 | 4.56 µM
COc1cc(NCCC(=O)c2cccs2)c(OC)cc1Cl | 4.04 µM
CCCCOc1ccc(NC(=O)CN2CCN(Cc3ccccc3)CC2)cc1 | 25.6 µM (inactive)
CCCNC(=O)c1ccc(COc2ccc(C)cc2)o1 | 32.9 µM (inactive)
CCOC(=O)Cc1c(C)nc2c(-c3ccc(Cl)cc3)c[nH]n2c1=O | 3.93 µM
CCOC(=O)NC(=O)COC(=O)CCCSc1nc2ccccc2s1 | 10 µM (inactive)
O=[N+]([O-])c1ccc(N2CCN(Cc3ccc([N+](=O)[O-])o3)CC2)cc1 | < 0.1 µM
Cc1c(C(=O)NNC(=O)c2csc(N3CCOCC3)n2)oc2ccccc12 | 7.63 µM
O=c1oc2ccccc2nc1/C=C(\O)c1ccc(Br)cc1 | 6.03 µM
Cc1cccc(NC(=O)COc2ccc(Br)cc2)n1 | 7.08 µM
O=C1NC(=O)N(Cc2ccc(F)cc2)C(=O)/C1=C\c1ccc([N+](=O)[O-])s1 | 11.2 µM (inactive)
O=C(COc1ccc2c(c1)CCC2)Nc1ccccn1 | 11.6 µM (inactive)
COc1ccc2nc(C)cc(N/N=C/c3ccc(F)cc3)c2c1 | 7.75 µM
COc1cc(OC)nc(-n2ncc(Br)c(Br)c2=O)n1 | 6.07 µM
Cc1ccc(OCC(=O)OCc2c(C)noc2C)cc1C | 11.7 µM (inactive)
O=C(Nc1nccs1)c1ccc(Br)cc1 | 39.5 µM (inactive)
O=C(COC(=O)c1cc(Br)ccc1O)Nc1ccc2c(c1)OCO2 | 7.79 µM
Cc1nc(C(=O)Nc2ccccc2)sc1C(=O)Nc1ccccc1 | 9.77 µM
CC(=O)c1ccc(OC(=O)c2ccc(-n3nc(C)cc3C)cc2)cc1 | 2.45 µM
CCOc1ccc(NC(=O)Cn2sc3nc(C)cc(C)c3c2=O)cc1 | 5.5 µM
CC(C)(C)c1cc(CN2CCN(CCO)CC2)cc(C(C)(C)C)c1O | 3.78 µM

SMILES | IC50
O=C(c1ccc(Br)o1)N1CCC(Cc2ccccc2)CC1 | 3.77 µM
CCOC(=O)CN1NC2(CCCC(C)C2)NC1=S (centres undefined) | 11.9 µM (inactive)
Oc1ccc(Br)cc1-c1ccn[nH]1 | 1.71 µM
Cc1cccc(NCc2ccc([N+](=O)[O-])s2)c1 | 22.2 µM (inactive)
COC(=O)c1c(NC(=O)c2ccc([N+](=O)[O-])o2)sc2c1CCN(C(C)C)C2 | 0.15 µM
COc1cccc(COC(=O)CCNC(=O)c2ccc(Br)cc2)c1OC | 15.6 µM (inactive)
CC1=C(C)/C(=N\OS(=O)(=O)c2ccccc2)C=CC1=O | 1.47 µM
CCc1ccc(OCC(=O)c2c(O)c3ccccc3oc2=O)cc1 | 9.35 µM
Cc1ccc(Sc2ncccc2N)cc1 | 41.3 µM (inactive)
CN(O)/C=c1/ccc2c(n1)C(=O)C=CC=2 | 1.92 µM
CCOc1ccc(-c2ccc(C=O)o2)c([N+](=O)[O-])c1 | 19 µM (inactive)
CCCc1cc(NCCCn2ccnc2)n2nc(C)c(-c3ccccc3)c2n1 | 19.5 µM (inactive)
CCn1nnc(NC(=O)COc2ccc(C3CCCCC3)cc2)n1 | 1.5 µM
CCCOC(=O)c1cc(-c2ccc(C=O)o2)ccc1Cl | 4.94 µM
CCOC(=O)COn1c(-c2cccc(Cl)c2)nc2ccc([N+](=O)[O-])cc21 | 19.6 µM (inactive)
COc1ccc(C(=O)NNC2=C(C(=O)C(F)(F)F)CCC2)cc1 | 1.9 µM
O=C(CCNc1cccc(Cl)c1)c1cccs1 | 11 µM (inactive)
COC(=O)C1=C(C)N(Cc2ccccc2)C(=NCc2ccccc2)N[C@H]1c1cccc(F)c1 | 6.37 µM
CCOC(=O)c1cc2cc3ccccc3cc2oc1=O | 37.6 µM (inactive)
c1ccc(-c2nnc(SCc3nnc(-c4cccs4)o3)o2)cc1 | 5.95 µM
O=C(COc1ccc(Br)cc1)N/N=C1/SCC(=O)N1Cc1ccccc1 | 13 µM (inactive)
Cn1nnnc1Sc1ncnc2scc(-c3ccc[nH]3)c12 | 8.43 µM
CSc1nc(=S)cc(C)[nH]1 | 6.23 µM

SMILES | IC50
CCN1/C(=C(\O)c2ccccc2)C(=O)c2ccccc2S1(=O)=O | 15.8 µM (inactive)
O=C(Nc1ccc(S(=O)(=O)N2CCOCC2)cc1)c1ccc([N+](=O)[O-])o1 | 5.29 µM
O=C1NC(=O)N(CCc2ccc(F)cc2)C(=O)/C1=C/C=C/c1ccccc1 | 5.37 µM
O=C(NC(=S)N1CCN(Cc2ccc3c(c2)OCO3)CC1)c1ccc(Cl)cc1 | 33.4 µM (inactive)
CCOc1cc(/C=N/NC(=O)c2ccccn2)ccc1OC(=O)c1cccs1 | 5.55 µM
O=C(NNC(=O)C12CC3CC(CC(C3)C1)C2)c1cnccn1 | 32.2 µM (inactive)
CC(=O)N(c1nnc(-c2ccc(C)cc2)s1)C1CCCC1 | 26.2 µM (inactive)
CC1=C(/C=C/C(C)=N\NC(=O)c2ccncc2)C(C)(C)CCC1 | 1.15 µM
CCOC(=O)C1(O)CC(C)=NN1C(=O)c1cccc(Br)c1 (centres undefined) | 1.42 µM
CCCn1nnnc1NC(=O)c1ccc2ccccc2c1 | 3.46 µM
O=c1cc(-c2ccccc2Cl)oc2c([N+](=O)[O-])c(O)cc(O)c12 | 5.05 µM
O=C(NNC1=C(C(=O)C(F)(F)F)CCC1)c1ccccc1Cl | 1.32 µM
COc1ccc(CN2CCC(C(=O)Nc3ccc(Oc4cccnc4)cc3)CC2)c(C)c1C | 7.54 µM
Cc1cccc(N2CCN(Cc3ccc([N+](=O)[O-])o3)CC2)c1C | 2 µM
NC(=O)N/N=C\c1cc(Br)ccc1O | 4.2 µM
Cc1ccc(NC(=O)COc2ccccc2)cc1Cl | 9.92 µM
C/C(=N\Nc1nc2ccccc2nc1C)c1ccccc1O | 1.65 µM
C/C(=N\NC(=O)c1cc([N+](=O)[O-])cc([N+](=O)[O-])c1)c1ccco1 | 11.4 µM (inactive)
Cc1cc(N/N=C/c2ccccc2[N+](=O)[O-])nc(-n2nc(C)cc2C)n1 | 1.96 µM
O=C(OCC(=O)N1CCCc2ccccc21)c1ccc(S(=O)(=O)C(F)F)cc1 | 20.5 µM (inactive)
O=C(OCC#CCSc1nnc(-c2ccccc2)o1)c1ccco1 | 1.44 µM
O=c1oc(/C=C/c2ccc([N+](=O)[O-])s2)nc2ccccc12 | 8.47 µM
COc1cccc(-c2nnc(NC(=O)c3ccc(S(=O)(=O)N(CC(C)C)CC(C)C)cc3)o2)c1 | 13.7 µM (inactive)

SMILES | IC50
Cc1ccc(NC(CC(=O)c2ccccc2)C(=O)O)cc1Cl (centres undefined) | 8.32 µM
COC(=O)COc1ccc2c(-c3ccc(OC)cc3)cc(=O)oc2c1 | 0.78 µM
CCOC(=O)/C=C1\Nc2ccccc2OC1=O | 3 µM
N#Cc1nc(-c2ccc(OCc3ccccc3)cc2)oc1NCCCn1ccnc1 | 15.4 µM (inactive)
O=C(CC(=O)c1cc(Cl)ccc1O)c1ccccc1 | 2.65 µM
CCOC(=O)Nc1cccc(OCC(=O)Nc2ccc(OC)cc2OC)c1 | 16.5 µM (inactive)
Cc1ccc(-c2noc(CCCC(=O)Nc3cccnc3)n2)cc1 | 7.61 µM
Nc1c(Cl)cc(Cl)cc1C(=O)OCC(=O)N1CCCC1 | 2.46 µM
Cc1onc(-c2c(F)cccc2Cl)c1C(=O)O/N=C(\N)c1ccc([N+](=O)[O-])o1 | 5.96 µM
CC(=O)c1ccc(NC(=O)c2cc(CC(C)C)on2)cc1 | 3.58 µM
O=C(Nc1ccc(Cl)cc1Cl)c1cccc(N2C(=O)C=CC2=O)c1 | 11.6 µM (inactive)
COc1n[nH]c(C(=O)Nc2cc(F)ccc2C)c1[N+](=O)[O-] | 12.4 µM (inactive)
CCCNC1=C(N(C(C)=O)c2cccc(F)c2)C(=O)c2ccccc2C1=O | 5.89 µM
CCOC(=O)Cc1nc2cc(Cl)ccc2o1 | 32.3 µM (inactive)
CN(C)S(=O)(=O)c1ccc(C(=O)Oc2ccccc2)cc1 | 2.41 µM
Cc1ccc(-n2nnnc2CNC(=O)c2ccc([N+](=O)[O-])o2)cc1C | 24.2 µM (inactive)
O=C(Oc1ccccc1Cl)c1ccc2c(=O)n3c(nc2c1)CCC3 | 2.28 µM
CCOC(=O)c1ccc(NC2OC(=O)c3ccccc32)cc1 (centres undefined) | 3.99 µM
CCOc1ccc2nc(/N=C/c3nc(-c4ccccc4)oc3O)sc2c1 | 6.2 µM
O=C(N/N=C/c1ccc([N+](=O)[O-])s1)c1cccnc1 | 4.48 µM
COc1ccc2oc(=O)c(/C(C)=N/NC(=O)c3ccncc3)cc2c1 | 0.84 µM
COc1ccc(-c2nc(C=O)cs2)cc1 | 5.84 µM
NC1=NC[C@H](Cc2ccccc2)N1CCCCC1CCCCC1 | 7.48 µM

SMILES | IC50
CC/C(=C\C=C\[C@@H]1C=C[C@@H]2CCC[C@H]2[C@@H]1C(=O)c1ccc[nH]1)[C@@H]1O[C@@H]([C@@H](C)C(=O)O)CC[C@@H]1C | 3.28 µM
CCSc1nc(O)c(C2OC(=O)c3c2ccc(OC)c3OC)c(=O)n1-c1ccccc1 (centres undefined) | 13.3 µM (inactive)
Cc1cc(C)n(C(=O)c2ccc([N+](=O)[O-])cc2[N+](=O)[O-])n1 | 24.3 µM (inactive)
Cc1cccc(NC(=O)c2cc3ccccc3o2)c1 | 3.23 µM
O=C(Nc1nnc(C2=COCCO2)o1)c1cccc(C(F)(F)F)c1 | 17.7 µM (inactive)
COc1ccc(C(=O)C(CN2CCCC2)c2ccccc2)cc1 (centres undefined) | 5.58 µM
O=C(Nc1ccc(S(=O)(=O)N2CCOCC2)cc1)c1ccc([N+](=O)[O-])s1 | 1.59 µM
CCOc1ccc2ccccc2c1/C=N/NC(=O)c1ccncc1 | 0.58 µM
Cc1c(Cl)cccc1NC(=O)C(=O)NNC(=O)c1ccccc1F | 1.59 µM
CSC1=NSC2=NC(=O)/C(=C\c3cccs3)C(=N)N12 | 4.51 µM
O=C(Nc1nnc(-c2ccccc2Cl)o1)c1ccco1 | 6.7 µM
Cc1[nH]n(S(=O)(=O)Cc2ccccc2)c(=O)c1N=Nc1ccccc1Cl | 4.72 µM
Cc1ccc(NC(=O)ON=C2CCCC2)cc1 | 1.97 µM
Cc1ccc(N=Nc2c(C)[nH]n(C(N)=S)c2=O)cc1 | 2.35 µM
CN(C)CCCN(C(=O)CCc1ccccc1)c1nc2ccc(Br)cc2s1 | 14.2 µM (inactive)
Cc1cnc(C(=O)NNC(=O)c2ccc(Br)cc2)cn1 | 4.88 µM
CC(Cc1cccs1)NC(=O)c1cccc(Cl)c1 (centres undefined) | 8.14 µM
O=C(COC(=O)c1ccc(O)cc1O)c1ccc2c(c1)OCO2 | 25.9 µM (inactive)
CC(C)OC(=O)c1c2c(n3ccccc13)C(=O)c1ccccc1C2=O | 9.5 µM
CCN(CC)CCNC(=O)c1[nH]c2ccc(OCc3ccccc3)cc2c1C | 29.6 µM (inactive)
S=C1NC2(CCCC2)N=C1c1ccccc1 | 12.4 µM (inactive)
O=C(CCc1ccc(Oc2cc([N+](=O)[O-])cc([N+](=O)[O-])c2)cc1)N1CCCCC1 | 4.85 µM
